Structures can show the parent of a compound that is named as a salt. Where two headings read alike, the source gives them in different places.
Key:
[1] = target: T1, gluthathione reductase (GR) (Homo sapiens, UniProt P00390); assay: Inhibition of recombinant GR (GSSG assay); assay type: biochemical
T1 sequence (P00390 44-522): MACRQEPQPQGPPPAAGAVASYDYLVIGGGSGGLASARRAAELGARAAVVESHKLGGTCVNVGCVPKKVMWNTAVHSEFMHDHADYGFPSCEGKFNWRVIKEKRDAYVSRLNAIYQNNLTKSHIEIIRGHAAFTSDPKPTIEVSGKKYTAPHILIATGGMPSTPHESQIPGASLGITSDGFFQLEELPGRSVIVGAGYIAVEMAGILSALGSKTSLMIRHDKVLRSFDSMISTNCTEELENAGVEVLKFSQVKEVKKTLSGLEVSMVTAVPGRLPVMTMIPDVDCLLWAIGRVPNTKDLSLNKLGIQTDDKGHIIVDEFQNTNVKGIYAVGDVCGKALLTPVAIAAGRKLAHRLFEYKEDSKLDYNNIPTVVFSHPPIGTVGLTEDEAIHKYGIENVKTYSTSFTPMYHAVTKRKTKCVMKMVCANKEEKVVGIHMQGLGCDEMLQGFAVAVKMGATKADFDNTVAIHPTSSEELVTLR
Procedure: (§1) Small molecule inhibition of recombinant thioredoxin reductase 1 (TrxR1) and gluthathione reductase (GR) was examined in 96-well plate format. 15 nM TrxR1 was incubated in the presence of 250 μM NADPH, 0.1 mg/ml BSA, and various concentrations of the compound of Example 1 (1% DMSO final) in 50 mM Tris (pH 7.5) and 2 mM EDTA buffer for 15 minutes. Following the incubation period, 2.5 mM DTNB was added to each well and the change in O.D. at 412 nm was followed. Percent activity was determined using DMSO vehicle and no TrxR1 (blank) controls. 2 nM GR was incubated in the presence of 250 μM NADPH, 0.1 mg/ml BSA, and various concentrations of compounds (1% DMSO final) in 50 mM Tris (pH 7.5) and 2 mM EDTA buffer for 15 minutes. Following the incubation period, 1 mM GSSG was added to each well and the change in O.D. at 340 nm was followed. Percent activity was determined using DMSO vehicle and no GR (blank) controls.

[2] = target: T2, recombinant thioredoxin reductase 1 (TrxR1) (Homo sapiens, UniProt Q16881); assay: Inhibition of recombinant TrxR1 (DTNB assay); assay type: biochemical
T2 sequence (Q16881 1-649): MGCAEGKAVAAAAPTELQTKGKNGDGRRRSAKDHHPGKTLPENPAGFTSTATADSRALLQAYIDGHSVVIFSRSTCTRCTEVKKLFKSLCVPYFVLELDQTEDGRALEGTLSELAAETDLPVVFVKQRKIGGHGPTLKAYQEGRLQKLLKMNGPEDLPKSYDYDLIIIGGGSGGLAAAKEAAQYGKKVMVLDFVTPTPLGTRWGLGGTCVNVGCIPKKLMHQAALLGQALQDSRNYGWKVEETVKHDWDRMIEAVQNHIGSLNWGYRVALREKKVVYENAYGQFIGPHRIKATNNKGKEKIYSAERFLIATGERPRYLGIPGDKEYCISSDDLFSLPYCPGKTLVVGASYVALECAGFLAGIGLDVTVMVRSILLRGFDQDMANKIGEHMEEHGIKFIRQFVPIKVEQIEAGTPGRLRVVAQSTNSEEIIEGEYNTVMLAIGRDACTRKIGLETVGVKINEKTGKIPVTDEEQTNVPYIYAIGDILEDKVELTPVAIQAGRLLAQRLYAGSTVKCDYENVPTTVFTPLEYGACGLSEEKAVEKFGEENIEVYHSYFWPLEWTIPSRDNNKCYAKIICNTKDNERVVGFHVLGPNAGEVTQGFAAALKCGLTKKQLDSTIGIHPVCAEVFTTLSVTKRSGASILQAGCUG
Procedure: as §1

[3] = Biological Example 1, 2 nM GR, 250 μM NADPH, 15 minutes incubation
[4] = Biological Example 4, assays of Biological Example 1
[5] = Biological Example 1, 15 nM TrxR1, 250 μM NADPH, 15 minutes incubation, read-out: TrxR inhibition
[6] = Biological Example 4, assays of Biological Example 1, read-out: TrxR Inhibition

IC50 [1, 3]	IC50 [1, 4]	IC50 [2, 5]	IC50 [2, 6]	Structure (SMILES)
	30.1 µM		2500 nM	O=C1C=C[C@H]2C3C(=O)N(c4ccccc4)C(=O)C3[C@@H]1N2Cc1cc(F)ccc1F (mixture of isomers) [Example 26, endo 11-(2,5-Difluorobenzyl)-4-phenyl-4,11-diazatricyclo[5.3.1.0^2,6]undec-9-ene-3,5,8-trione Trifluoroacetate]
	25.2 µM		1870 nM	O=C1C=C[C@H]2C3C(=O)N(c4ccccc4)C(=O)C3[C@@H]1N2Cc1cccc(F)c1F (mixture of isomers) [Example 30, endo-11-(2,3-Difluorobenzyl)-4-phenyl-4,11-diazatricyclo[5.3.1.0^2,6]undec-9-ene-3,5,8-trione Trifluoroacetate]
	> 100 µM		3630 nM	CCN1C(=O)C2C(C1=O)[C@@H]1C=CC(=O)[C@H]2N1Cc1cccc(C)c1 (mixture of isomers) [Example 48, endo-4-Ethyl-11-(3-methylbenzyl)-4,11-diazatricyclo[5.3.1.0^2,6]undec-9-ene-3,5,8-trione Trifluoroacetate]
	> 100 µM		3080 nM	CN1C(=O)C2C(C1=O)[C@@H]1C=CC(=O)[C@H]2N1Cc1ccccc1 (mixture of isomers) [Example 50, endo-11-Benzyl-4-methyl-4,11-diazatricyclo[5.3.1.0^2,6]undec-9-ene-3,5,8-trione Trifluoroacetate]
> 100 µM	75.2 µM	1970 nM	1240 nM	COc1cccc(CN2[C@@H]3C(=O)C=C[C@H]2[C@@H]2C(=O)N(c4ccccc4)C(=O)[C@@H]23)c1 (relative stereo) [Example 22, exo-11-(3-Methoxybenzyl)-4-phenyl-4,11-diazatricyclo[5.3.1.0^2,6]undec-9-ene-3,5,8-trione Trifluoroacetate]
	> 100 µM		3830 nM	CS(=O)(=O)c1ccc(CN2[C@@H]3C(=O)C=C[C@H]2[C@@H]2C(=O)N(c4ccccc4)C(=O)[C@@H]23)cc1 (relative stereo) [Example 23, exo-11-(4-(Methylsulfonyl)benzyl)-4-phenyl-4,11-diazatricyclo[5.3.1.0^2,6]-undec-9-ene-3,5,8-trione Trifluoroacetate]

Further lines, the compound ahead of its results:

Structure (SMILES)	IC50 [1, 3]	IC50 [1, 4]	IC50 [2, 5]	IC50 [2, 6]
O=C1C=C[C@H]2C3C(=O)N(C4CCCCC4)C(=O)C3[C@@H]1N2Cc1ccccc1 (mixture of isomers) [Example 10, endo-11-Benzyl-4-cyclohexyl-4,11-diazatricyclo[5.3.1.0^2,6]undec-9-ene-3,5,8-trione Trifluoroacetate]	> 100 µM	> 100 µM	2700 nM	790 nM
CC(C)(C)N1C(=O)C2C(C1=O)[C@@H]1C=CC(=O)[C@H]2N1Cc1ccccc1 (mixture of isomers) [Example 16, endo 11-Benzyl-4-(tert-butyl)-4,11-diazatricyclo[5.3.1.0^2,6]undec-9-ene-3,5,8-trione Trifluoroacetate]		> 100 µM		5560 nM
O=C1C=C[C@H]2[C@@H]3C(=O)N(c4ccccc4)C(=O)[C@@H]3[C@@H]1N2Cc1ccc(-c2ccccc2)cc1 (relative stereo) [Example 2, exo-11-([1,1′-Biphenyl]-4-ylmethyl)-4-phenyl-4,11-diazatricyclo[5.3.1.0^2,6]-undec-9-ene-3,5,8-trione Trifluoroacetate]		65.2 µM		1460 nM
CN1[C@@H]2C(=O)C=C[C@H]1[C@@H]1C(=O)N(c3ccccc3)C(=O)[C@@H]12 (relative stereo) [Example 3, exo-11-Methyl-4-phenyl-4,11-diazatricyclo[5.3.1.0^2,6]undec-9-ene-3,5,8-trione Trifluoroacetate]	44 µM	23 µM	3090 nM	1120 nM
Cc1ccc(CN2[C@@H]3C(=O)C=C[C@H]2[C@@H]2C(=O)N(c4ccccc4)C(=O)[C@@H]23)cc1 (relative stereo) [Example 4, exo-11-Methylbenzyl-4-phenyl-4,11-diazatricyclo[5.3.1.0^2,6]undec-9-ene-3,5,8-trione Trifluoroacetate]		55.6 µM		1180 nM
O=C1C=C[C@H]2[C@@H]3C(=O)N(c4ccccc4)C(=O)[C@@H]3[C@@H]1N2CCc1ccccc1 (relative stereo) [Example 7, exo-4-Phenyl-11-(2-phenylethyl)-4,11-diazatricyclo[5.3.1.0^2,6]undec-9-ene-3,5,8-trione Trifluoroacetate]	> 100 µM	> 100 µM	1750 nM	1970 nM
O=C1C=C[C@H]2[C@@H]3C(=O)N(C4CCCCC4)C(=O)[C@@H]3[C@@H]1N2Cc1ccccc1 (relative stereo) [Example 9, exo-11-Benzyl-4-cyclohexyl-4,11-diazatricyclo[5.3.1.0^2,6]undec-9-ene-3,5,8-trione Trifluoroacetate]	> 100 µM	> 100 µM	1850 nM	1850 nM
O=C1C=C[C@H]2[C@@H]3C(=O)N(Cc4ccccc4)C(=O)[C@@H]3[C@@H]1N2Cc1ccccc1 (relative stereo) [Example 11, exo-4,11-Dibenzyl-4,11-diazatricyclo[5.3.1.0^2,6]undec-9-ene-3,5,8-trione Trifluoroacetate]		> 100 µM		900 nM
CC1=CC(=O)[C@@H]2[C@H]3C(=O)N(C4CCCCC4)C(=O)[C@H]3[C@H]1N2Cc1ccccc1 (relative stereo) [Example 14, exo-11-Benzyl-4-cyclohexyl-10-methyl-4,11-diazatricyclo[5.3.1.0^2,6]undec-9-ene-3,5,8-trione Trifluoroacetate]		> 100 µM		33300 nM
CC(C)(C)N1C(=O)[C@@H]2[C@H](C1=O)[C@H]1C(=O)C=C[C@@H]2N1Cc1ccccc1 (relative stereo) [Example 17, exo-11-Benzyl-4-(tert-butyl)-4,11-diazatricyclo[5.3.1.0^2,6]undec-9-ene-3,5,8-trione Trifluoroacetate]		> 100 µM		1640 nM
O=C1C=C[C@H]2[C@@H]3C(=O)N(c4ccccc4)C(=O)[C@@H]3[C@@H]1N2Cc1ccc(F)cc1Cl (relative stereo) [Example 18, exo-11-(2-Chloro-4-fluorobenzyl)-4-phenyl-4,11-diazatricyclo[5.3.1.0^2,6]-undec-9-ene-3,5,8-trione Trifluoroacetate]	70.4 µM	22 µM	2450 nM	940 nM
Cc1ccccc1CN1[C@@H]2C(=O)C=C[C@H]1[C@@H]1C(=O)N(c3ccccc3)C(=O)[C@@H]12 (relative stereo) [Example 19, exo-11-(2-Methylbenzyl)-4-phenyl-4,11-diazatricyclo[5.3.1.0^2,6]undec-9-ene-3,5,8-trione Trifluoroacetate]		> 100 µM		1500 nM
Cc1cccc(CN2[C@@H]3C(=O)C=C[C@H]2[C@@H]2C(=O)N(c4ccccc4)C(=O)[C@@H]23)c1 (relative stereo) [Example 21, exo-11-(3-Methylbenzyl)-4-phenyl-4,11-diazatricyclo[5.3.1.0^2,6]undec-9-ene-3,5,8-trione Trifluoroacetate]	> 100 µM	> 100 µM	7390 nM	1150 nM
O=C1C=CC2C3C(=O)N(c4ccccc4)C(=O)C3C1N2Cc1cccc(C(F)(F)F)c1F (stereo not drawn) [Example 44, exo-11-(2-Fluoro-3-(trifluoromethyl)benzyl)-4-phenyl-4,11-diazatricyclo-[5.3.1.0^2,6]undec-9-ene-3,5,8-trione Trifluoroacetate]				2330 nM
